Test results as given in patent US9302999B2, “Substituted triazoles as herbicides” (E. I. DU PONT DE NEMOURS AND COMPANY, priority 2012, dated 2016).

Legend:
Assay type in all cases: in vivo
[1] = test system: ducksalad (Heteranthera limosa); experiment: Test B flooded paddy: ducksalad; conditions: Flood; 250 g ai/ha; applied to paddy water at 2-leaf stage; visually evaluated after 13 to 15 days
How it was run: (§1)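 Response scored visually, 0–100 relative to controls, 13–15 days after the compound was applied into paddy water; plants were at the 2-leaf stage in pots kept flooded to 3 cm.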

[2] = test system: sedge, umbrella (small-flower umbrella sedge Cyperus difformis); experiment: Test B flooded paddy: sedge, umbrella; conditions: Flood; 250 g ai/ha; applied to paddy water at 2-leaf stage; visually evaluated after 13 to 15 days
How it was run: as §1

[3] = test system: rice (Oryza sativa); experiment: Test B flooded paddy: rice; conditions: Flood; 250 g ai/ha; applied to paddy water at 2-leaf stage; visually evaluated after 13 to 15 days
How it was run: as §1

[4] = test system: soybean (Glycine max); experiment: Test C pre-/postemergence: soybean
How it was run: (§2)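 Preemergence on seeds in loam/sand, postemergence on 2–18 cm (1–4-leaf) plants in peat-based medium; compounds in non-phytotoxic solvent with surfactant. After 13–15 days in greenhouse, visual rating versus controls, 0 (no effect) to 100 (complete control).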

[5] = test system: bermudagrass (Cynodon dactylon); experiment: Test C pre-/postemergence: bermudagrass
How it was run: as §2

[6] = test system: woolly cupgrass (Eriochloa villosa); experiment: Test C pre-/postemergence: woolly cupgrass
How it was run: as §2

[7] = test system: surinam grass (Brachiaria decumbens); experiment: Test C pre-/postemergence: surinam grass
How it was run: as §2

[8] = test system: corn (Zea mays); experiment: Test C pre-/postemergence: corn
How it was run: as §2

[9] = test system: velvetleaf (Abutilon theophrasti); experiment: Test C pre-/postemergence: velvetleaf
How it was run: as §2

[10] = test system: wild oat (Avena fatua); experiment: Test C pre-/postemergence: wild oat
How it was run: as §2

[11] = test system: deadnettle (henbit deadnettle, Lamium amplexicaule); experiment: Test C postemergence: deadnettle
How it was run: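 Pot-grown plants in peat/vermiculite medium sprayed postemergence at 2–18 cm height (1- to 4-leaf stage). Kept in greenhouse 13 to 15 days, then visually rated against untreated controls on a 0–100 scale (0 = no effect, 100 = complete control).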

[12] = test system: foxtail, giant (giant foxtail, Setaria faberii); experiment: Test C pre-/postemergence: foxtail, giant
How it was run: as §2

[13] = test system: lambsquarters (Chenopodium album); experiment: Test C pre-/postemergence: lambsquarters
How it was run: as §2

[14] = Postemergence, 31 g ai/ha, scale 0 to 100 (0 no effect, 100 complete control)
[15] = Postemergence, 62 g ai/ha, scale 0 to 100 (0 no effect, 100 complete control)
[16] = Postemergence, 125 g ai/ha, scale 0 to 100, 0 no effect, 100 complete control
[17] = Postemergence, 250 g ai/ha, scale 0 to 100
[18] = Preemergence, 31 g ai/ha, scale of 0 to 100, 0 is no effect, 100 is complete control
[19] = Preemergence, 62 g ai/ha, scale of 0 to 100, 0 is no effect, 100 is complete control
[20] = Preemergence, 125 g ai/ha, scale 0 to 100, 0 no effect, 100 complete control
[21] = Preemergence, 250 g ai/ha, scale 0 to 100, 0 no effect, 100 complete control
[22] = Preemergence, 62 g ai/ha, scale 0 to 100, 0 no effect, 100 complete control

Cc1nn(-c2ccc(F)cc2F)nc1Cc1ccnc(C(F)(F)F)c1 [Compound 54, 4-[[2-(2,4-difluorophenyl)-5-methyl-2H-1,2,3-triazol-4-yl]methyl]-2-(trifluoromethyl)pyridine]
30: Plant response rating, Rice (0 to 100 scale, 0 is no effect, 100 is complete control) [3]
85: Plant response rating, Ducksalad (0 to 100 scale, 0 is no effect, 100 is complete control) [1] | Plant response rating, Sedge, Umbrella (0 to 100 scale, 0 is no effect, 100 is complete control) [2]

Cc1nn(-c2ccc(C(F)(F)F)cc2)nc1Oc1ccnc(C(F)(F)F)c1 [Compound 120]
15: Plant response rating, Velvetleaf [9, 19]
80: Plant response rating, Oat, Wild [10, 16]
0: Plant response rating, Soybean [4, 18] | Plant response rating, Corn [8, 18]
60: Plant response rating, Oat, Wild [10, 15]
98: Plant response rating, Bermudagrass [5, 18] | Plant response rating, Bermudagrass [5, 22] | Plant response rating, Bermudagrass [5, 20] | Plant response rating, Cupgrass, Woolly [6, 20] | Plant response rating, Cupgrass, Woolly [6, 21] | Plant response rating, Surinam Grass [7, 20] | Plant response rating, Foxtail, Giant [12, 18] | Plant response rating, Foxtail, Giant [12, 19] | Plant response rating, Foxtail, Giant [12, 20]
65: Plant response rating, Surinam Grass [7, 18] | Plant response rating, Velvetleaf [9, 17]
85: Plant response rating, Oat, Wild [10, 18] | Plant response rating, Lambsquarters [13, 18]
55: Plant response rating, Soybean [4, 16] | Plant response rating, Velvetleaf [9, 16] | Plant response rating, Oat, Wild [10, 14] | Plant response rating, Foxtail, Giant [12, 17]
5: Plant response rating, Soybean [4, 19] | Plant response rating, Bermudagrass [5, 14] | Plant response rating, Bermudagrass [5, 15] | Plant response rating, Bermudagrass [5, 16] | Plant response rating, Surinam Grass [7, 14] | Plant response rating, Surinam Grass [7, 15] | Plant response rating, Corn [8, 14] | Plant response rating, Corn [8, 22] | Plant response rating, Velvetleaf [9, 18] | Plant response rating, Foxtail, Giant [12, 14]
90: Plant response rating, Cupgrass, Woolly [6, 18] | Plant response rating, Oat, Wild [10, 17] | Plant response rating, Oat, Wild [10, 19]
50: Plant response rating, Corn [8, 21] | Plant response rating, Foxtail, Giant [12, 16]
45: Plant response rating, Cupgrass, Woolly [6, 17] | Plant response rating, Velvetleaf [9, 15] | Plant response rating, Foxtail, Giant [12, 15]
25: Plant response rating, Soybean [4, 14] | Plant response rating, Soybean [4, 15] | Plant response rating, Corn [8, 20]
35: Plant response rating, Velvetleaf [9, 20]
20: Plant response rating, Soybean [4, 21] | Plant response rating, Surinam Grass [7, 16] | Plant response rating, Surinam Grass [7, 17] | Plant response rating, Velvetleaf [9, 14]
10: Plant response rating, Soybean [4, 20] | Plant response rating, Bermudagrass [5, 17] | Plant response rating, Cupgrass, Woolly [6, 14] | Plant response rating, Cupgrass, Woolly [6, 15] | Plant response rating, Corn [8, 15] | Plant response rating, Corn [8, 16] | Plant response rating, Corn [8, 17]
40: Plant response rating, Cupgrass, Woolly [6, 16]
95: Plant response rating, Cupgrass, Woolly [6, 19] | Plant response rating, Surinam Grass [7, 19] | Plant response rating, Oat, Wild [10, 20] | Plant response rating, Oat, Wild [10, 21]
100: Plant response rating, Soybean [4, 17] | Plant response rating, Bermudagrass [5, 21] | Plant response rating, Surinam Grass [7, 21] | Plant response rating, Velvetleaf [9, 21] | Plant response rating, Deadnettle ([11]; 31 g ai/ha, scale 0 to 100 (0 no effect, 100 complete control)) | Plant response rating, Deadnettle ([11]; 62 g ai/ha, scale 0 to 100 (0 no effect, 100 complete control)) | Plant response rating, Deadnettle ([11]; 125 g ai/ha, scale 0 to 100, 0 no effect, 100 complete control) | Plant response rating, Deadnettle ([11]; 250 g ai/ha, scale 0 to 100) | Plant response rating, Foxtail, Giant [12, 21] | Plant response rating, Lambsquarters [13, 14] | Plant response rating, Lambsquarters [13, 15] | Plant response rating, Lambsquarters [13, 16] | Plant response rating, Lambsquarters [13, 17] | Plant response rating, Lambsquarters [13, 19] | Plant response rating, Lambsquarters [13, 20] | Plant response rating, Lambsquarters [13, 21]

Cc1nn(-c2ccc(F)cc2F)nc1Oc1ccnc(C(F)(F)F)c1 [Compound 146]
60: Plant response rating, Ducksalad (0 to 100 scale, 0 is no effect, 100 is complete control) [1] | Plant response rating, Velvetleaf [9, 21]
100: Plant response rating, Cupgrass, Woolly [6, 21] | Plant response rating, Surinam Grass [7, 20] | Plant response rating, Surinam Grass [7, 21] | Plant response rating, Foxtail, Giant [12, 19] | Plant response rating, Foxtail, Giant [12, 20] | Plant response rating, Foxtail, Giant [12, 21]
15: Plant response rating, Soybean [4, 19] | Plant response rating, Corn [8, 20] | Plant response rating, Velvetleaf [9, 20]
95: Plant response rating, Lambsquarters [13, 21]
90: Plant response rating, Cupgrass, Woolly [6, 20] | Plant response rating, Oat, Wild [10, 21]
5: Plant response rating, Velvetleaf [9, 19] | Plant response rating, Oat, Wild [10, 18]
80: Plant response rating, Sedge, Umbrella (0 to 100 scale, 0 is no effect, 100 is complete control) [2]
35: Plant response rating, Rice (0 to 100 scale, 0 is no effect, 100 is complete control) [3]
45: Plant response rating, Cupgrass, Woolly [6, 19]
98: Plant response rating, Bermudagrass [5, 18] | Plant response rating, Bermudagrass [5, 19] | Plant response rating, Bermudagrass [5, 20] | Plant response rating, Bermudagrass [5, 21]
25: Plant response rating, Corn [8, 21]
20: Plant response rating, Surinam Grass [7, 19]
40: Plant response rating, Soybean [4, 21] | Plant response rating, Cupgrass, Woolly [6, 18] | Plant response rating, Oat, Wild [10, 19] | Plant response rating, Foxtail, Giant [12, 18] | Plant response rating, Lambsquarters [13, 19]
10: Plant response rating, Soybean [4, 18] | Plant response rating, Surinam Grass [7, 18] | Plant response rating, Lambsquarters [13, 18]
0: Plant response rating, Corn [8, 18] | Plant response rating, Corn [8, 19] | Plant response rating, Velvetleaf [9, 18]
85: Plant response rating, Oat, Wild [10, 20] | Plant response rating, Lambsquarters [13, 20]
